Experimental data published in patent US12304910B2, “Janus kinase (JAK) family inhibitor, preparation of same, and applications thereof” (JIANGSU VCARE PHARMATECH CO., LTD., priority 2019, dated 2025).

Assays:
JAK2 = JAK2 (Homo sapiens, UniProt O60674); test: Kinase activity test (γ33P-ATP isotopic method), JAK2; format: biochemical; details: 33P-ATP 10 μM, 2 h reaction
Experimental: (§1) This experiment adopted a γ^33p-ATP isotopic test method to test the inhibitory effect of a compound on kinases JAK1, JAK2, JAK3 and TYK2, and obtained a half inhibitory concentration IC50 of the compound for inhibiting activity of the kinase.
(§2) 20 mM 4-hydroxyethylpiperazine ethanesulfonic acid buffer (Hepes, pH 7.5), 10 mM magnesium chloride (MgCl2), 1 mM ethylene glycol diethyl ether diamine tetraacetic acid (EGTA), 0.02% dodecyl polyethylene glycol ether (Brij35), 0.02 mg/ml bovine serum albumin (BSA), 0.1 mM sodium vanadate (Na3VO4), 2 mM dithiothreitol (DTT), and 1% dimethylsulfoxide (DMSO).
(§3) A compound is dissolved with 100% DMSO to a specific concentration, and then subjected to gradient dilution by an automatic sampling device to obtain the samples to be tested with different concentrations (DMSO solutions).
(§4) 3.1 diluting the reaction substrate with the basic reaction buffer;
(§5) 3.2 adding the kinase into the substrate solution, and gently mixing well;
(§6) 3.3 adding, by the automatic sampling system, the 100% DMSO diluted compounds with different concentrations into the kinase solution, and incubating for 20 min at room temperature; and
(§7) 3.4 adding ^33p-ATP (10 μM, 10 μCi/μl) at room temperature to initiate the kinase reaction for a duration of 2 h.
(§8) The unreacted ATP and the reaction-generated […] in the reaction were removed by an ion exchange filtering system, and then the amount of radioactivity of ^33p isotope in the substrate was detected.
(§9) According to the amount of radioactivity, the kinase activities in the systems added with the inhibitors of different concentrations were calculated, to obtain the inhibitors' effects of the compounds of different concentrations on the kinase activity; and fitting was performed with graphpad prism to obtain the inhibitory IC50 values of the compounds.

JAK3 = molecular target: T1, JAK3 (Homo sapiens, UniProt P52333); test: Kinase activity test (γ33P-ATP isotopic method), JAK3; format: biochemical; details: 33P-ATP 10 μM, 2 h reaction
T1 sequence (P52333 1-1124): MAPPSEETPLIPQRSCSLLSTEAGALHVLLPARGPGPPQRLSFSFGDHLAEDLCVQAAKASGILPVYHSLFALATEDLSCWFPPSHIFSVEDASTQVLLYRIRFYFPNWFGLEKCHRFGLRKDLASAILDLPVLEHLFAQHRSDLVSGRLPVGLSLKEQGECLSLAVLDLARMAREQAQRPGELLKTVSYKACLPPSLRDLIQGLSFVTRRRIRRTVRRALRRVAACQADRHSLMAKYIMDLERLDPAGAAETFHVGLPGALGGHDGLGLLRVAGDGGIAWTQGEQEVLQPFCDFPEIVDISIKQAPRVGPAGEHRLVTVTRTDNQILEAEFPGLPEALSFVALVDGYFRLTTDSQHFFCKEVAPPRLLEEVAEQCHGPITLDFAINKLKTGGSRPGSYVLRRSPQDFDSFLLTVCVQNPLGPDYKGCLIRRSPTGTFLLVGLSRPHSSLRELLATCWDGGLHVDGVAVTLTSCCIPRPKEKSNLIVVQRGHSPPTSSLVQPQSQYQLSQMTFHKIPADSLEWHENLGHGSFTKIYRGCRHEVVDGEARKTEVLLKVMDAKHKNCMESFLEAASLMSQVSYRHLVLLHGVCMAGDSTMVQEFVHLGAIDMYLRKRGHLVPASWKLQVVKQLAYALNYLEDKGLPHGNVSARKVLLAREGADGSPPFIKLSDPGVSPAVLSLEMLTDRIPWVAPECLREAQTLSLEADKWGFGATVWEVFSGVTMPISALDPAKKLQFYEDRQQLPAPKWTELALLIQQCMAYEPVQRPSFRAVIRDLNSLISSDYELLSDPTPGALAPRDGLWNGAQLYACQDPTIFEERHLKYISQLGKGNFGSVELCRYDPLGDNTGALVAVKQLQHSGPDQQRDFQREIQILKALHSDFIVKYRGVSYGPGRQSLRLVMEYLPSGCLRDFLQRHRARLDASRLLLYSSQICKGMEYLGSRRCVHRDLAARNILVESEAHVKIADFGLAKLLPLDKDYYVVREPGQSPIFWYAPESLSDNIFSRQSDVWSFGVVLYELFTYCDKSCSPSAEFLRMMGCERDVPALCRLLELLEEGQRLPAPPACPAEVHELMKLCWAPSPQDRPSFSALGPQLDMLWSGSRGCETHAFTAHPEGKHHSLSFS
Experimental: as §1, §2, §3, §4, §5, §6, §7, §8, §9

[1] = Liver microsome test (metabolic stability); format: in vitro ADME, human
Experimental: In an incubation system with a total volume of 250 μL, an incubation solution of hum an liver microsomes containing 0.5 mg/mL protein was formulated with a 50 mmol/L PBS buffer (pH=7.4). Before the start of incubation, 2.5 μL of a 100 μmol/L compound to be tested was mixed with 197.5 μL of the above incubation buffer, pre-incubated for 5 min in a 37° C. water bath, and then added with 50 μL of a reducing coenzyme II solution (5 mmol/L) that was likewise pre-incubated for 5 min to start a reaction (in the reaction system, the protein content of liver microsomes from various species was 0.5 g/L, and the final concentration of the compound to be tested was 1 μmol/L), incubated in a 37° C. water bath with shaking, and taken out at 0, 5, 15, 30, and 60 min respectively. 600 μL of a methanol solution of mixed positive and negative internal standards with internal standards Terfenadine (positive ion internal standard, 25 ng/mL) and Tolbutamide (negative ion internal standard, 50 ng/mL) was immediately added to terminate the reaction. The incubation solution after termination was shaken for 2 min and centrifuged (4° C., 16000 r/min) for 10 min, and the supernatant was taken for LC-MS/MS detection to quantitatively analyze the remaining amount of the parent drug. (DMSO=0.1%).
The concentration of the compound at 0 mi incubation was regarded as 100%, and the concentrations at other incubation time points were converted into the remaining percentages. The natural logarithm of the remaining percentage at each time point was linearly regressed against the incubation time, and the slope k was calculated. According to the formula T1/2=−0.693/k, the in vitro half-life was calculated. Clearance in liver microsomes (CLint (μL/min/mg protein)=Ln (2)*1000/T1/2 (min/Protein Conc (mg/ml)).

[2] = human liver microsomes, conclusion from Table 2

Sequence of JAK2 (O60674 whole entry): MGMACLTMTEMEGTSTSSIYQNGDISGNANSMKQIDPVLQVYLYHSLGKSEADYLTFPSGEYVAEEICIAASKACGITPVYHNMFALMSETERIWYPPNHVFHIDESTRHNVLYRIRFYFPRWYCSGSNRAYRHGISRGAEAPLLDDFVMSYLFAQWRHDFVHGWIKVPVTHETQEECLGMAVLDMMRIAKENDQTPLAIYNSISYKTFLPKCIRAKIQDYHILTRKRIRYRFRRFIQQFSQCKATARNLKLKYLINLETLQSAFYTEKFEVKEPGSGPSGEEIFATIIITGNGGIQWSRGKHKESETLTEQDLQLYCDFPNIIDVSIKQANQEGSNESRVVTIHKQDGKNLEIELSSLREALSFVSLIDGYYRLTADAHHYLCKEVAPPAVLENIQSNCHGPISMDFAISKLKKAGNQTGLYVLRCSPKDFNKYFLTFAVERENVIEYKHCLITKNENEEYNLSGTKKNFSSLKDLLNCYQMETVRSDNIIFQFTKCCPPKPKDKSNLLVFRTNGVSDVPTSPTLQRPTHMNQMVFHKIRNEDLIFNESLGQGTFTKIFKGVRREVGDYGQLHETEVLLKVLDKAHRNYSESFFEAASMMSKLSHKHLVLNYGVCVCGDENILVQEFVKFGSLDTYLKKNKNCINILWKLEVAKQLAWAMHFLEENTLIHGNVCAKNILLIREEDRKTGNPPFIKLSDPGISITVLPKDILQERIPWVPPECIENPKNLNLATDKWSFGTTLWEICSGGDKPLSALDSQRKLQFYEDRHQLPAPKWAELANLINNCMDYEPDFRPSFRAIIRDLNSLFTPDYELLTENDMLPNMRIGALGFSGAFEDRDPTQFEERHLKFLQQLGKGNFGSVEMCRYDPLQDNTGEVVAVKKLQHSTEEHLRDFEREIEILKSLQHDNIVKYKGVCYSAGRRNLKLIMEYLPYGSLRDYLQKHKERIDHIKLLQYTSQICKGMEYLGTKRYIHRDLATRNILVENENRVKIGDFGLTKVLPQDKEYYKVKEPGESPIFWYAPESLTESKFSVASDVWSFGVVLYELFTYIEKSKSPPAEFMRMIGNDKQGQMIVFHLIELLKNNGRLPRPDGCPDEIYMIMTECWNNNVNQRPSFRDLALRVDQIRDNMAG

NC(=O)c1cnc2[nH]ccc2c1NN1CCC[C@H](C(=O)NCC(F)F)C1 [Example 2, (S)-4-(3-(2,2-difluoroethylcarbamoyl)piperidine-1-amino)-1H-7-azaindole-5-carboxamide]
IC50 (JAK2): 3.69 nM | IC50 (JAK3): 3.1 nM | Remaining % (60 min) ([1]; human liver microsomes 0.5 mg/mL protein, compound 1 μmol/L, 37° C., 60 min): 91.9% | metabolic half-life in liver microsomes compared with Tofacitinib (in words) [1, 2]: significantly superior to the positive drug Tofacitinib | metabolic stability in liver microsomes (in words) [1, 2]: excellent metabolic activity in liver | half-life at 1 μmol/L ([1]; pH 7.4, human liver microsomes 0.5 mg/mL protein, compound 1 μmol/L, 37° C.): 330 min | microsomal CLint at 1 μmol/L ([1]; pH 7.4, human liver microsomes 0.5 mg/mL protein, compound 1 μmol/L, 37° C., read-out: Clint (μL/min/mg protein)): 4.2 µL/min/mg
